Results published in article PMC5374441 (Scientific Reports, 2017).
Where two headings read alike, the source gives them in different places. Bridge positions count the residues as written; N and C are the ends. Peptide text beside a SMILES is read from it.

Legend:
Assay in all cases: biochemical
Type in all cases: binding
Ls-AChBP = biological target: T1, Ls-AChBP (Lymnaea stagnalis, UniProt P58154)
T1 construct: made in house

Ac-AChBP = biological target: T2, Ac-AChBP (Aplysia californica, UniProt Q8WSF8); conditions: SEM
T2 construct: made in house

Q55K Ls-AChBP mutant = biological target: T3, Q55K Ls-AChBP mutant (Lymnaea stagnalis, UniProt P58154, Q74K)
T3 construct: made in house; Top10 E. coli is named only for plasmid propagation

CC[C@H](C)[C@@H]1NC(=O)[C@H](CC(N)=O)NC(=O)[C@@H]2CCCN2C(=O)[C@H](CC(N)=O)NC(=O)[C@H](CC(=O)O)NC(=O)[C@H](C(C)C)NC(=O)[C@H](CCCNC(=N)N)NC(=O)[C@@H]2CSSC[C@H](NC(=O)CNC(=O)[C@@H](N)CO)C(=O)N[C@@H](CSSC[C@@H](C(N)=O)NC1=O)C(=O)N[C@@H](CO)C(=O)N[C@@H](CC(N)=O)C(=O)N1CCC[C@H]1C(=O)N[C@@H](C)C(=O)N2 [N12D-LsIA] (H-SGCCSNPACRVDNPNIC-NH2; disulfide 3-9, 4-17)
IC50 (Ls-AChBP): > 10 µM
IC50 (Ac-AChBP): 5.55 µM

CC[C@H](C)[C@@H]1NC(=O)[C@H](CC(N)=O)NC(=O)[C@@H]2CCCN2C(=O)[C@H](CC(N)=O)NC(=O)[C@H](CC(C)C)NC(=O)[C@H](C(C)C)NC(=O)[C@H](CCCNC(=N)N)NC(=O)[C@@H]2CSSC[C@H](NC(=O)CNC(=O)[C@@H](N)CO)C(=O)N[C@@H](CSSC[C@@H](C(N)=O)NC1=O)C(=O)N[C@@H](CO)C(=O)N[C@@H](CC(N)=O)C(=O)N1CCC[C@H]1C(=O)N[C@@H](C)C(=O)N2 [N12L-LsIA] (H-SGCCSNPACRVLNPNIC-NH2; disulfide 3-9, 4-17)
IC50 (Ls-AChBP): > 10 µM
IC50 (Ac-AChBP): 0.061 ± 0.007 µM

CC[C@H](C)[C@@H]1NC(=O)[C@H](CC(N)=O)NC(=O)[C@@H]2CCCN2C(=O)[C@H](CC(N)=O)NC(=O)[C@H](CCC(N)=O)NC(=O)[C@H](C(C)C)NC(=O)[C@H](CCCNC(=N)N)NC(=O)[C@@H]2CSSC[C@H](NC(=O)CNC(=O)[C@@H](N)CO)C(=O)N[C@@H](CSSC[C@@H](C(N)=O)NC1=O)C(=O)N[C@@H](CO)C(=O)N[C@@H](CC(N)=O)C(=O)N1CCC[C@H]1C(=O)N[C@@H](C)C(=O)N2 [N12Q-LsIA] (H-SGCCSNPACRVQNPNIC-NH2; disulfide 3-9, 4-17)
IC50 (Ls-AChBP; SEM): 2.44 ± 0.75 µM
IC50 (Ac-AChBP): 0.0552 ± 0.0009 µM

CC[C@H](C)[C@@H]1NC(=O)[C@H](CC(N)=O)NC(=O)[C@@H]2CCCN2C(=O)[C@H](CC(N)=O)NC(=O)[C@H](CC(N)=O)NC(=O)[C@H](C(C)C)NC(=O)[C@H](CC(=O)O)NC(=O)[C@@H]2CSSC[C@H](NC(=O)CNC(=O)[C@@H](N)CO)C(=O)N[C@@H](CSSC[C@@H](C(N)=O)NC1=O)C(=O)N[C@@H](CO)C(=O)N[C@@H](CC(N)=O)C(=O)N1CCC[C@H]1C(=O)N[C@@H](C)C(=O)N2 [R10D-LsIA] (H-SGCCSNPACDVNNPNIC-NH2; disulfide 3-9, 4-17)
IC50 (Ls-AChBP): > 10 µM
activity at Ls-AChBP (in words) (Ls-AChBP): inactive
IC50 (Ac-AChBP): 8.37 µM
IC50 (Q55K Ls-AChBP mutant): > 10 µM

CC[C@H](C)[C@@H]1NC(=O)[C@H](CC(N)=O)NC(=O)[C@@H]2CCCN2C(=O)[C@H](CC(N)=O)NC(=O)[C@H](CC(N)=O)NC(=O)[C@H](C(C)C)NC(=O)[C@H](Cc2ccccc2)NC(=O)[C@@H]2CSSC[C@H](NC(=O)CNC(=O)[C@@H](N)CO)C(=O)N[C@@H](CSSC[C@@H](C(N)=O)NC1=O)C(=O)N[C@@H](CO)C(=O)N[C@@H](CC(N)=O)C(=O)N1CCC[C@H]1C(=O)N[C@@H](C)C(=O)N2 [R10F-LsIA] (H-SGCCSNPACFVNNPNIC-NH2; disulfide 3-9, 4-17)
IC50 (Ls-AChBP; SEM): 0.11 ± 0.02 µM
IC50 (Ac-AChBP): 0.0022 ± 5e-05 µM
IC50 (Q55K Ls-AChBP mutant; SEM): 0.8 ± 0.26 µM

CC[C@H](C)[C@@H]1NC(=O)[C@H](CC(N)=O)NC(=O)[C@@H]2CCCN2C(=O)[C@H](CC(N)=O)NC(=O)[C@H](CC(N)=O)NC(=O)[C@H](C(C)C)NC(=O)[C@H](CCSC)NC(=O)[C@@H]2CSSC[C@H](NC(=O)CNC(=O)[C@@H](N)CO)C(=O)N[C@@H](CSSC[C@@H](C(N)=O)NC1=O)C(=O)N[C@@H](CO)C(=O)N[C@@H](CC(N)=O)C(=O)N1CCC[C@H]1C(=O)N[C@@H](C)C(=O)N2 [R10M-LsIA] (H-SGCCSNPACMVNNPNIC-NH2; disulfide 3-9, 4-17)
IC50 (Ls-AChBP; SEM): 0.5 ± 0.16 µM
IC50 (Ac-AChBP): 0.00188 ± 0.00065 µM
IC50 (Q55K Ls-AChBP mutant; SEM): 7.1 ± 2.5 µM
